# Where two headings read alike, the source gives them in different places.
# Columns and labels:
# [1] = target: T1, beta-catenin/TCF4 engagement (Homo sapiens, UniProt P35222); test: Nano-BRET target engagement assay (B-cat-Halo & TCF4-Luc in HEK293 cells); format: cell-based; conditions: read-out: NanoBRET Abs IC50
# T1 construct: expressed in transfected cells; host or cells: HEK293
# T1 sequence (P35222 1-781): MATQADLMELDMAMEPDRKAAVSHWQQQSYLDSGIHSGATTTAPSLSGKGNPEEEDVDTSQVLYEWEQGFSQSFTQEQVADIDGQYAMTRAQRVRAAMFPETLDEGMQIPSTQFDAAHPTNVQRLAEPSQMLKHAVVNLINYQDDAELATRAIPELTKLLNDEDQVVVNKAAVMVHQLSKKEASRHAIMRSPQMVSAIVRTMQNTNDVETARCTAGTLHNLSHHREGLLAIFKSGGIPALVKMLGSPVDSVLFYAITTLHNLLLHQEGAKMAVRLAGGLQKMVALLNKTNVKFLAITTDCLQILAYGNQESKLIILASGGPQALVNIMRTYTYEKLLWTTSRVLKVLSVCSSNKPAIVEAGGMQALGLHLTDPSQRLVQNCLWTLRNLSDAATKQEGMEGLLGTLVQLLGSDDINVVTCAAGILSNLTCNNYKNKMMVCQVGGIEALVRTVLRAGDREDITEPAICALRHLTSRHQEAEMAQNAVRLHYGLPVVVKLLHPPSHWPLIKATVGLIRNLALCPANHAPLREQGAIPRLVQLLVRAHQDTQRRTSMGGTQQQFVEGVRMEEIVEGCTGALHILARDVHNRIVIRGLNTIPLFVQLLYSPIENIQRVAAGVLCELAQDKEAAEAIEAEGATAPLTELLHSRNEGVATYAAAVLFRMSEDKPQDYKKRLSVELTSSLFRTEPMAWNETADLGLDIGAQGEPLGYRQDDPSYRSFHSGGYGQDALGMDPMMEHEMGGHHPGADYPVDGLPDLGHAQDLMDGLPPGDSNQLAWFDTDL
# [2] = target: T2, full-length beta-Catenin (Uniprot ID P35222) (Homo sapiens, UniProt P35222); test: Fluorescence polarization IC50 (beta-catenin / 5FAM-TCF4 10-53 competition); format: binding; conditions: fluorescence polarization; read-out: beta-Catenin FP IC50
# T2 construct: 10 nM full-length beta-Catenin (Uniprot ID P35222)
# T2 sequence (P35222 1-781): T1 sequence (P35222 1-781)
IC50 ([1]; absolute IC50),IC50 [2],IC50 [1],SMILES
5400 nM,18.5 nM,,"CC(=O)N1CCC[C@]12CC=CCCCC1(CCCC=CCCCOC(=O)N3CC[C@@](C(=O)N[C@@H](Cc4ccsc4)C(=O)N[C@@H](Cc4csc5ccccc45)C(=O)N[C@@H](CCC(N)=O)C(=O)N4CCC[C@H]4CO)(C3)NC(=O)[C@H](CC(C)C)NC(=O)[C@H](Cc3ccccc3)NC(=O)[C@H](C)NC(=O)[C@H](C)NC(=O)[C@H](CN(CC(=O)O)CC(F)(F)F)NC(=O)[C@H](CC(=O)O)NC1=O)NC(=O)[C@H](CC(C)(C)C)NC(=O)[C@H](CC(=O)O)NC2=O (stereo partly drawn) [I-1681, Ac-PL3-Asp-Npg-B5-Asp-TfeGA-Ala-Ala-Phe-Leu-PyrS2-3Thi-BztA-Gln-Proo1]"
> 20000 nM,26 nM,,"CC(=O)N1CCC[C@]12CC=CCCCC1(CCCC=CCCOC(=O)N3CC[C@@](C(=O)N[C@@H](Cc4ccsc4)C(=O)N[C@@H](Cc4csc5ccccc45)C(=O)N[C@@H](CCC(N)=O)C(N)=O)(C3)NC(=O)[C@H](CC(N)=O)NC(=O)[C@H](Cc3ccccc3)NC(=O)[C@H](C)NC(=O)[C@H](C)NC(=O)[C@H](CC(=O)O)NC(=O)[C@H](CC(=O)O)NC1=O)NC(=O)[C@H](CC(C)(C)C)NC(=O)[C@H](CC(=O)O)NC2=O (stereo partly drawn) [I-1813, Ac-PL3-Asp-Npg-B5-Asp-Asp-Ala-Ala-Phe-Asn-PyrS1-3Thi-BztA-Gln-NH2]"
35200 nM,9 nM,,"CC(=O)N1CCC[C@]12CC=CCCCC1(CCCC=CCCCOC(=O)N3CC[C@@](C(=O)N[C@@H](Cc4ccccc4Cl)C(=O)N[C@@H](Cc4csc5ccccc45)C(=O)N[C@@H](CCC(N)=O)C(N)=O)(C3)NC(=O)[C@H](CC(N)=O)NC(=O)[C@H](Cc3ccccc3)NC(=O)[C@H](C)NC(=O)[C@H](C)NC(=O)[C@H](CN(CCCC(F)(F)F)CC(=O)O)NC(=O)[C@H](CC(=O)O)NC1=O)NC(=O)[C@H](CC(C)(C)C)NC(=O)[C@H](CC(=O)O)NC2=O (stereo partly drawn) [I-1446, Ac-PL3-Asp-Npg-B5-Asp-[Tfb]GA-Ala-Ala-Phe-Asn-PyrS2-2C1F-BztA-Gln-NH2]"
8900 nM,28 nM,,"CC(=O)N1CCC[C@]12CC=CCCCC1(CCCC=CCCCOC(=O)N3CC[C@@](C(=O)N[C@@H](Cc4ccsc4)C(=O)N[C@@H](Cc4csc5ccccc45)C(=O)N[C@@H](CCC(N)=O)C(N)=O)(C3)NC(=O)[C@H](CC3CCCCC3)NC(=O)[C@H](Cc3ccccc3)NC(=O)[C@H](C)NC(=O)[C@H](C)NC(=O)[C@H](CN(CC(=O)O)CC(F)(F)F)NC(=O)[C@H](CC(=O)O)NC1=O)NC(=O)[C@H](CC(C)(C)C)NC(=O)[C@H](CC(=O)O)NC2=O (stereo partly drawn) [I-1774, Ac-PL3-Asp-Npg-B5-Asp-TfeGA-Ala-Ala-Phe-Cha-PyrS2-3Thi-BztA-Gln-NH2]"
,212 nM,> 20000 nM,"CC(=O)N1CCC[C@]12CC=CCCCC1(CCCC=CCCCOC(=O)N3CC[C@@](C(=O)N[C@@H](Cc4ccccc4C(N)=O)C(=O)N[C@@H](Cc4csc5ccccc45)C(=O)N[C@@H](CCO)C(N)=O)(C3)NC(=O)[C@H](CC(N)=O)NC(=O)[C@H](Cc3ccccc3)NC(=O)[C@H](C)NC(=O)[C@H](CCCCNC(C)C)NC(=O)[C@H](CCC(N)=O)NC(=O)[C@H](CC(=O)O)NC1=O)NC(=O)[C@H](CC1CCCCC1)NC(=O)[C@H](CC(N)=O)NC2=O (stereo partly drawn) [I-2168, Ac-PL3-Asn-Cha-B5-Asp-Gln-iPrLys-Ala-Phe-Asn-PyrS2-2cbmf-BztA-Hse-NH2]"
,144 nM,> 20000 nM,"CC(=O)N1CCC[C@]12CC=CCCCC1(CCCC=CCCCOC(=O)N3CC[C@@](C(=O)N[C@@H](Cc4ccccc4)C(=O)N[C@@H](Cc4csc5ccccc45)C(=O)N[C@@H](C)C(N)=O)(C3)NC(=O)[C@H](CC(N)=O)NC(=O)[C@H](Cc3ccccc3)NC(=O)[C@H](C)NC(=O)[C@H](CCCCNC(C)C)NC(=O)[C@H](CCC(N)=O)NC(=O)[C@H](CC(=O)O)NC1=O)NC(=O)[C@H](CC1CCCCC1)NC(=O)[C@H](CC(N)=O)NC2=O (stereo partly drawn) [I-2065, Ac-PL3-Asn-Cha-B5-Asp-Gln-iPrLys-Ala-Phe-Asn-PyrS2-Phe-BztA-Ala-NH2]"
,27 nM,29400 nM,"CC(=O)N1CCC[C@]12CC=CCCCC1(CCCC=CCCCOC(=O)N3CCC(C(=O)N[C@@H](Cc4ccsc4)C(=O)N[C@@H](Cc4csc5ccccc45)C(=O)N[C@@H](C)C(N)=O)(CC3)NC(=O)[C@H](CC(C)C)NC(=O)[C@H](Cc3ccccc3)NC(=O)[C@H](C)NC(=O)[C@H](CCC(N)=O)NC(=O)[C@H](Cc3cccc(C(=O)O)c3)NC(=O)[C@H](CC(=O)O)NC1=O)NC(=O)[C@H](CC(C)(C)C)NC(=O)[C@H](CC(=O)O)NC2=O (stereo partly drawn) [I-2593, Ac-PL3-Asp-Npg-B5-Asp-3COOHF-Gln-Ala-Phe-Leu-SPip2-3Thi-BztA-Ala-NH2]"
14700 nM,5 nM,,"CC(=O)N1CCC[C@]12CC=CCCCC1(CCCC=CCCCOC(=O)N3CC[C@@](C(=O)N[C@@H](Cc4ccsc4)C(=O)N[C@@H](Cc4csc5ccccc45)C(=O)N[C@H](C(N)=O)[C@@H](C)O)(C3)NC(=O)[C@H](CC(C)C)NC(=O)[C@H](Cc3ccccc3)NC(=O)[C@H](C)NC(=O)[C@H](C)NC(=O)[C@H](CC(=O)O)NC(=O)[C@H](CC(=O)O)NC1=O)NC(=O)[C@H](CC(C)(C)C)NC(=O)[C@H](CC(=O)O)NC2=O (stereo partly drawn) [I-1494, Ac-PL3-Asp-Npg-B5-Asp-Asp-Ala-Ala-Phe-Leu-PyrS2-3Thi-BztA-Thr-NH2]"
> 20000 nM,5 nM,,"CC(=O)N1CCC[C@]12CC=CCCCC1(CCCC=CCCCOC(=O)N3CC[C@@](C(=O)N[C@@H](Cc4ccccc4)C(=O)N[C@@H](Cc4csc5ccccc45)C(=O)N[C@@H](CCC(N)=O)C(N)=O)(C3)NC(=O)[C@H](CC(C)C)NC(=O)[C@H](Cc3ccccc3)NC(=O)[C@H](C)NC(=O)[C@H](CCCCNC(C)C)NC(=O)[C@H](Cc3cccc(C(=O)O)c3)NC(=O)[C@H](CC(=O)O)NC1=O)NC(=O)[C@H](CC1CCCCC1)NC(=O)[C@H](CC(N)=O)NC2=O (stereo partly drawn) [I-2340, Ac-PL3-Asn-Cha-B5-Asp-3COOHF-iPrLys-Ala-Phe-Leu-PyrS2-Phe-BztA-Gln-NH2]"
3400 nM,7 nM,,"CC(=O)N1CCC[C@]12CC=CCCCC1(CCCC=CCCCOC(=O)N3CC[C@@](C(=O)N[C@@H](Cc4ccsc4)C(=O)N[C@@H](Cc4ccc(Cl)c(Cl)c4)C(=O)N[C@@H](CCC(N)=O)C(N)=O)(C3)NC(=O)[C@H](CC(C)C)NC(=O)[C@H](Cc3ccccc3)NC(=O)[C@H](C)NC(=O)[C@H](C)NC(=O)[C@H](Cc3cccc(C(=O)O)c3)NC(=O)[C@H](CC(=O)O)NC1=O)NC(=O)[C@H](CC(C)(C)C)NC(=O)[C@H](CC(=O)O)NC2=O (stereo partly drawn) [I-2216, Ac-PL3-Asp-Npg-B5-Asp-3COOHF-Ala-Ala-Phe-Leu-PyrS2-3Thi-34C1F-Gln-NH2]"
3700 nM,9 nM,,"CC(=O)N1CCC[C@]12CC=CCCCC1(CCCC=CCCCOC(=O)N3CC[C@@](C(=O)N[C@@H](Cc4ccsc4)C(=O)N[C@@H](Cc4csc5ccccc45)C(=O)N[C@@H](CCC(N)=O)C(=O)N[C@H](CO)[C@@H](C)O)(C3)NC(=O)[C@H](CC(C)C)NC(=O)[C@H](Cc3ccccc3)NC(=O)[C@H](C)NC(=O)[C@H](C)NC(=O)[C@H](CN(CC(=O)O)CC(F)(F)F)NC(=O)[C@H](CC(=O)O)NC1=O)NC(=O)[C@H](CC(C)(C)C)NC(=O)[C@H](CC(=O)O)NC2=O (stereo partly drawn) [I-1683, Ac-PL3-Asp-Npg-B5-Asp-TfeGA-Ala-Ala-Phe-Leu-PyrS2-3Thi-BztA-Gln-Thro1]"
7800 nM,13 nM,,"CC(=O)N1CCC[C@]12CC=CCCCC1(CCCC=CCCCOC(=O)N3CC[C@@](C(=O)N[C@@H](Cc4ccsc4)C(=O)N[C@@H](Cc4cccc(Cl)c4)C(=O)N[C@@H](C)C(N)=O)(C3)NC(=O)[C@H](C(C)C)NC(=O)[C@H](Cc3ccccc3)NC(=O)[C@H](C)NC(=O)[C@H](CCC(N)=O)NC(=O)[C@H](Cc3cccc(C(=O)O)c3)NC(=O)[C@H](CC(=O)O)NC1=O)NC(=O)[C@H](CC(C)(C)C)NC(=O)[C@H](CC(=O)O)NC2=O (stereo partly drawn) [I-2225, Ac-PL3-Asp-Npg-B5-Asp-3COOHF-Gln-Ala-Phe-Val-PyrS2-3Thi-3C1F-Ala-NH2]"
> 20000 nM,39 nM,,"CC(=O)N1CCC[C@]12CC=CCCCC1(CCCC=CCCCOC(=O)N3CC[C@@](C(=O)N[C@@H](Cc4ccsc4)C(=O)N[C@@H](Cc4csc5ccccc45)C(=O)N[C@@H](Cc4ccccc4)C(N)=O)(C3)NC(=O)[C@H](CC(C)C)NC(=O)[C@H](Cc3ccccc3)NC(=O)[C@H](C)NC(=O)[C@H](CCCCNC(C)C)NC(=O)[C@H](CN(CC(=O)O)CC(F)(F)F)NC(=O)[C@H](CC(=O)O)NC1=O)NC(=O)[C@H](CC(C)(C)C)NC(=O)[C@H](CC(=O)O)NC2=O (stereo partly drawn) [I-1761, Ac-PL3-Asp-Npg-B5-Asp-TfeGA-iPrLys-Ala-Phe-Leu-PyrS2-3Thi-BztA-Phe-NH2]"

# From US20240116985A1, “STAPLED PEPTIDES AND METHODS THEREOF” (priority 2020, published 2024)
